Data as given in ChEMBL document CHEMBL1201862, “PubChem BioAssay data set” (2004).
Calls of active or inactive are those of the source.

Columns and labels:
Ephrin type-A receptor 4 = Ephrin type-A receptor 4 (Mus musculus, UniProt Q03137); experiment: EphA4 ligand-binding antagonists – biochemical, colorimetric, mouse EphA4, primary screen (AID 689); type: functional
[1] = biological target: T1, Oxysterols receptor LXR-beta (Homo sapiens, UniProt P55055); experiment: LXR agonists, Gal4 luciferase reporter, dose response, counter-screen for ssDAF-12 agonist project, cell-based, luminescence, HEK293, S. stercoralis campaign (AID 720737); type: functional; conditions: read-out: IC50 (the source's name)
T1 sequence (P55055 whole entry): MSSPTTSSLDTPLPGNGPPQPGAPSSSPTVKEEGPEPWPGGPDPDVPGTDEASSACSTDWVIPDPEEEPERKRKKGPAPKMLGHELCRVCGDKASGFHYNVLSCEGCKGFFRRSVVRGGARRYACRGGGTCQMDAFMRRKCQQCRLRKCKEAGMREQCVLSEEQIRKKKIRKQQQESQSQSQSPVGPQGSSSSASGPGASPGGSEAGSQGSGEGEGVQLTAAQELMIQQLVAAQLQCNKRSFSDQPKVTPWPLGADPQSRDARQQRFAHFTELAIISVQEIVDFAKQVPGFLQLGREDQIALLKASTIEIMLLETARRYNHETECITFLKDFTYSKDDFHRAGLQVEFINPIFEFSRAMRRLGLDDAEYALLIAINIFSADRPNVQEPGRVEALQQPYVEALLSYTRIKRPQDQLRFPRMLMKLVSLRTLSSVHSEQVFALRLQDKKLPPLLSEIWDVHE

[2] = Luminescence-based cell-based high throughput dose response assay to identify activators of the DAF-12 from the parasite S. stercoralis (ssDAF-12).; type: functional
[3] = M. tuberculosis growth inhibition, HTS (AID 449762); type: functional
[4] = biological target: T2, Sphingosine 1-phosphate receptor 1 (Homo sapiens, UniProt P21453); experiment: Late stage counterscreen assay for S1P4 antagonists: Fluorescence dose response cell-based screening assay for antagonists of the Sphingosine 1-Phosphate Receptor 1 (S1P1). [Related pubchem assays (depositor defined):AID1510, AID1524, AID1692, AID1853, AID2332, AID489009, AID489017]; type: functional
T2 sequence (P21453 whole entry): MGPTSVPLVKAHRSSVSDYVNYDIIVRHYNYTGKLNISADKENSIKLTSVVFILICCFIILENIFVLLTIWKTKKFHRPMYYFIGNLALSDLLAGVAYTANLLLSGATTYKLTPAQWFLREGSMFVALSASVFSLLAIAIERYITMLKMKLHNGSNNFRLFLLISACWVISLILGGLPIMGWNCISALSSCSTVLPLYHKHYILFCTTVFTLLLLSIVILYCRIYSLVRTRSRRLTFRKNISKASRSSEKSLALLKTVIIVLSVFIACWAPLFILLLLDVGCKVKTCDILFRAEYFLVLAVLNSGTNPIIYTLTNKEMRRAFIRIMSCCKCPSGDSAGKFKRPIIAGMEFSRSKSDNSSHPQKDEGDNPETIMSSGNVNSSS

[5] = biological target: T2, Sphingosine 1-phosphate receptor 1; type: functional
[6] = biological target: Sphingosine 1-phosphate receptor 3 (Homo sapiens, UniProt Q99500); experiment: Late stage counterscreen assay for S1P4 antagonists: Fluorescence dose response cell-based screening assay for antagonists of the Sphingosine 1-Phosphate Receptor 3 (S1P3). [Related pubchem assays (depositor defined):AID1510, AID1524, AID1692, AID1853, AID2332, AID489009, AID489017]; type: functional
Sphingosine 1-phosphate receptor 3, sequence (Q99500 whole entry): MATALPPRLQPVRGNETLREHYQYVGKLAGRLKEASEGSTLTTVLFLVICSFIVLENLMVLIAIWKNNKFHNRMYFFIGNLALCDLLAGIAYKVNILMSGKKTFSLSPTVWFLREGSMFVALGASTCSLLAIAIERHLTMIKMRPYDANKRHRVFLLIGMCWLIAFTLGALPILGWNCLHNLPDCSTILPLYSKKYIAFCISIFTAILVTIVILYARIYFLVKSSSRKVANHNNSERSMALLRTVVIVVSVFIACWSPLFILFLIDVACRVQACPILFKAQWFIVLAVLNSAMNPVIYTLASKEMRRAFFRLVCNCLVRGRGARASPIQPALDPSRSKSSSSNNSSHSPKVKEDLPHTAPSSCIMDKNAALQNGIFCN

[7] = biological target: T3, Sphingosine 1-phosphate receptor 4 (Homo sapiens, UniProt O95977); experiment: Late stage fluorescence dose response cell-based screening assay for antagonists of the Sphingosine 1-Phosphate Receptor 4 (S1P4). [Related pubchem assays: 1524 (Confirmation screen (S1P4 antagonists).), 1510 (Primary screen (S1P4 antagonists).), 1853 (Summary AID (S1P4 antagonists).), 1692 (Dose response screen (S1P4 antagonists).)]; type: functional
T3 sequence (O95977 whole entry): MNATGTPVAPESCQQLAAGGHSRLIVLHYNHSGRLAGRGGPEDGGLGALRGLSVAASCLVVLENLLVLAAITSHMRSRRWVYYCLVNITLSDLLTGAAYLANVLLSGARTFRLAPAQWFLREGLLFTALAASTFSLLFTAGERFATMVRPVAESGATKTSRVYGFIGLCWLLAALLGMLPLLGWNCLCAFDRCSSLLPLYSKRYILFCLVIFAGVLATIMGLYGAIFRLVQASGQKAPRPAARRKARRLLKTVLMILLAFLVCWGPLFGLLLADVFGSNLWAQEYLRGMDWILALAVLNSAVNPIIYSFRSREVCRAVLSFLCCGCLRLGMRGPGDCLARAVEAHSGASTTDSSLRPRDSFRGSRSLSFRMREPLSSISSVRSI

[8] = biological target: T3, Sphingosine 1-phosphate receptor 4; experiment: Fluorescence dose response cell-based high throughput screening assay for antagonists of the Sphingosine 1-Phosphate Receptor 4 (S1P4). [Related pubchem assays: 1524 (Confirmation in triplicates.), 1510 (Primary screen.)]; type: functional
[9] = biological target: Sphingosine 1-phosphate receptor 2 (Homo sapiens, UniProt O95136); experiment: Late stage counterscreen assay for S1P4 antagonists: Fluorescence dose response cell-based screening assay for antagonists of the Sphingosine 1-Phosphate Receptor 2 (S1P2). [Related pubchem assays (depositor defined):AID1510, AID1524, AID1692, AID1853, AID2332, AID489009, AID489017]; type: functional
Sphingosine 1-phosphate receptor 2, sequence (O95136 whole entry): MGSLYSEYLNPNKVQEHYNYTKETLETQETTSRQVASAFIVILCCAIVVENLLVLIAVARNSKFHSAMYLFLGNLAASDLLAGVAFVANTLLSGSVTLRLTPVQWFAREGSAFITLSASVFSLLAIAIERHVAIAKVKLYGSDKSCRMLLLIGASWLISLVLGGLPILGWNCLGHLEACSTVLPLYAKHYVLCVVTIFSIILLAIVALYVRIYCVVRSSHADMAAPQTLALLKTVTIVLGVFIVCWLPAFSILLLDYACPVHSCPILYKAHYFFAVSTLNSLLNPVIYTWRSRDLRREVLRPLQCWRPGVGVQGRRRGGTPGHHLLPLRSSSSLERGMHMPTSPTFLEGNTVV

[10] = biological target: Sphingosine 1-phosphate receptor 5 (Homo sapiens, UniProt Q9H228); experiment: Late stage counterscreen assay for S1P4 antagonists: Fluorescence dose response cell-based screening assay for antagonists of the Sphingosine 1-Phosphate Receptor 5 (S1P5). [Related pubchem assays (depositor defined):AID1510, AID1524, AID1692, AID1853, AID2332, AID489009, AID489017]; type: functional
Sphingosine 1-phosphate receptor 5, sequence (Q9H228 whole entry): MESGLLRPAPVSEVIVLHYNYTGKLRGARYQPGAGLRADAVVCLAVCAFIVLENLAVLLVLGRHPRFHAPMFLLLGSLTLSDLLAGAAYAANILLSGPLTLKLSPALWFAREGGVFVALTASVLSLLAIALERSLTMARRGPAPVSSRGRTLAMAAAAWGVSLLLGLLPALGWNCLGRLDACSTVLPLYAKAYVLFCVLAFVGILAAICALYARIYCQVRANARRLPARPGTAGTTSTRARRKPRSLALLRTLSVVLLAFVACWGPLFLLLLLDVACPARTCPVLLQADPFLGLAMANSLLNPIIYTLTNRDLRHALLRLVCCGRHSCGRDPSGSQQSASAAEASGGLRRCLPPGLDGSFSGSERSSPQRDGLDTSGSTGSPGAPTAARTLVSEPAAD

Leucine aminopeptidase = biological target: T4, Leucine aminopeptidase (Plasmodium falciparum 3D7, UniProt Q8IL11); experiment: P. falciparum M17LAP inhibitors, primary screen, biochemical, fluorogenic H-Leu-NHMec substrate, 1536-well (AID 1619); type: functional
T4 sequence (Q8IL11 whole entry): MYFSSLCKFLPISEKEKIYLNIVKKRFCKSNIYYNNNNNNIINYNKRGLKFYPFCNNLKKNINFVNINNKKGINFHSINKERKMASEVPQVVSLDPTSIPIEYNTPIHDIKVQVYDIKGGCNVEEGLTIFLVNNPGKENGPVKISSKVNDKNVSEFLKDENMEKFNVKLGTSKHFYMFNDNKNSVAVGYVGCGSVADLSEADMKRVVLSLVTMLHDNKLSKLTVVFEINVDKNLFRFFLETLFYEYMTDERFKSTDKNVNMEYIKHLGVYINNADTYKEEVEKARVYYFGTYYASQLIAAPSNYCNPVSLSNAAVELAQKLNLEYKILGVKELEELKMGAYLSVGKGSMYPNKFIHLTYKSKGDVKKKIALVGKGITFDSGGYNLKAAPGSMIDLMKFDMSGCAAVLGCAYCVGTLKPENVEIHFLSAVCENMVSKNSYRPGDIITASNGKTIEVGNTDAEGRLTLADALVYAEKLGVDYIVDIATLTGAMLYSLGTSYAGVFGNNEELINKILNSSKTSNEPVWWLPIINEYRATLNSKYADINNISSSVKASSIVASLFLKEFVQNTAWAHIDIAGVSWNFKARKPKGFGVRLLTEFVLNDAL

[11] = biological target: Solute carrier family 12 member 2/member 5 (Homo sapiens, UniProt P55011+Q9H2X9); experiment: KCC2 and NKCC1 inhibition by rubidium flux, cell-based, NKCC1 counter-screen (AID 1734); type: functional, HEK293
NADPH oxidase 1 = NADPH oxidase 1 (Homo sapiens, UniProt Q9Y5S8); experiment: Late-stage luminescence-based cell-based dose response assay to identify inhibitors of NADPH oxidase 1 (NOX1): Synthesized analogs 2.; type: functional
NADPH oxidase 1, sequence (Q9Y5S8 whole entry): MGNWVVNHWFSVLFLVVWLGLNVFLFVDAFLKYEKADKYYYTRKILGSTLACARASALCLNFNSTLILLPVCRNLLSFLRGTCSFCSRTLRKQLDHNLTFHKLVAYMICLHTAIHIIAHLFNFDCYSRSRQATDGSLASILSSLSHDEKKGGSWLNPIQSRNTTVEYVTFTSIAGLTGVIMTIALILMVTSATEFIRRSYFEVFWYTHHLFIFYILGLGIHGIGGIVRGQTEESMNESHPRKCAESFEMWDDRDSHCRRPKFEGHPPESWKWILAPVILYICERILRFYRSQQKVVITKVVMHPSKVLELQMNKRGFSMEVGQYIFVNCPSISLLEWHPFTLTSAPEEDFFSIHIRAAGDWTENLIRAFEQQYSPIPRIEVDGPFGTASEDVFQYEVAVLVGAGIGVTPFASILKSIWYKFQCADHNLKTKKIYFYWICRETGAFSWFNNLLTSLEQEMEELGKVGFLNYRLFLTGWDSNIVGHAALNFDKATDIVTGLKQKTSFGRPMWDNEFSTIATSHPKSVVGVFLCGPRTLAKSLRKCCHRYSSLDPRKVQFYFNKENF

Ephrin type-A receptor 4, sequence (Q03137 whole entry, the tested form may be a part): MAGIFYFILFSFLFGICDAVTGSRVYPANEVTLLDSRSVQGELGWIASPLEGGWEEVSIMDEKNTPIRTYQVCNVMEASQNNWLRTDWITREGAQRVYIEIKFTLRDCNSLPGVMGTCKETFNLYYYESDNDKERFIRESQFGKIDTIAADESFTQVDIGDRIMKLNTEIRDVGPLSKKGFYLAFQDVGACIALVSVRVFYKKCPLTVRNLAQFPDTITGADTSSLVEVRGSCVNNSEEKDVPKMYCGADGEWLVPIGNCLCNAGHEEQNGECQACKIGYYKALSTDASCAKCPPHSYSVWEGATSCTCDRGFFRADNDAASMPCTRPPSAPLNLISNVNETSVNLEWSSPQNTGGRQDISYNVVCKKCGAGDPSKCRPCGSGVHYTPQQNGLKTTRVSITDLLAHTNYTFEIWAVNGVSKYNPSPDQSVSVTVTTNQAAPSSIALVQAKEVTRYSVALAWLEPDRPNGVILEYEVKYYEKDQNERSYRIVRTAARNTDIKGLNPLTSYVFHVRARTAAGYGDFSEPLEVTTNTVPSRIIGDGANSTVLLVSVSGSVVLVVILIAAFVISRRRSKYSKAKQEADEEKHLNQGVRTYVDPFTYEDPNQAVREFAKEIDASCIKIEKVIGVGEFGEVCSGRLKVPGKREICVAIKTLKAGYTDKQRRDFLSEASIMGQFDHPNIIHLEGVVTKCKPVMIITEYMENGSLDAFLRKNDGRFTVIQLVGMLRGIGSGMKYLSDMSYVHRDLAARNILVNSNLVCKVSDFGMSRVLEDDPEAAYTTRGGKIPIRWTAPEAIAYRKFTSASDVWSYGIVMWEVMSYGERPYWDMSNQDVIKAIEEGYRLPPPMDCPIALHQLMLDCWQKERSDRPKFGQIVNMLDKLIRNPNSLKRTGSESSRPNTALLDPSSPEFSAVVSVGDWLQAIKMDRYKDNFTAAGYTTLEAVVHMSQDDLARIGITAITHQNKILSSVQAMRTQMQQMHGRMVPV

Question: For `CCn1c2ccc(Cl)cc2c2nc3ccccc3nc21`, which IC50 (Ephrin type-A receptor 4) is on record?
Answer: Its IC50 is 18.2 µM (active).

Question: For `O=C(Nc1cccc(O)c1)c1c(O)nc2ccccc2c1O`, which EC50 [1] is on record?
Answer: Its EC50 is > 67.5 µM (inactive).

Question: What about the IC50 [2] of the same compound?
Answer: The IC50 was > 67.5 µM (inactive).

Question: With `CC(C)c1ccc2[nH]c(O)c(N=NC(=O)c3ccc(CSc4nncn4C)cc3)c2c1` as the compound, how does the IC50 [3] read?
Answer: The IC50 was > 100 µM (active).

Question: With `Cc1cc(NC(=O)/C=C/c2ccccc2)c(C(C)C)cc1O` as the compound, how does the IC50 [4] read?
Answer: The IC50 was > 25 µM (inactive).

Question: And the IC50 [5]?
Answer: The IC50 was > 49.8 µM (not active).

Question: What about the IC50 [6] of the same compound?
Answer: The IC50 was > 25 µM (inactive).

Question: What about the IC50 [7] of the same compound?
Answer: Its IC50 is 0.338 µM (active).

Question: What about the IC50 [8] of the same compound?
Answer: The IC50 was 0.852 µM (active).

Question: And the IC50 [9]?
Answer: Its IC50 is > 25 µM (inactive).

Question: What about the IC50 [10] of the same compound?
Answer: Its IC50 is > 25 µM (inactive).

Question: Which results are given for `Cc1ccc(Nc2nnc(SCC(=O)c3cc4ccccc4o3)s2)cc1C`?
Answer: IC50 (Leucine aminopeptidase): 19.8 µM (active); IC50 [11]: 0.64 µM (active)

Question: For `CN1c2ccc(N=[N+]=[N-])cc2Sc2cc(N=[N+]=[N-])ccc21`, which IC50 (NADPH oxidase 1) is on record?
Answer: The IC50 was 7.05 µM (active).
